Article PMC10674160, “Synthesis and Preclinical Evaluation of Radiolabeled [^103Ru]BOLD-100” (Pharmaceutics, 2023)

Test: Tissue distribution in CT26 allograft bearing Balb/c mice (ICP-MS for 3a, gamma counting for 3b)
Format: in vivo
Description: UV/Vis spectra were recorded on a Hitachi U-2000 Dual Beam spectrophotometer. Sample activities were measured on an ISOMED 2010 dose calibrator. For centrifugation during synthesis, a Fisherbrand^TM Mini-Centrifuge from Fisher Scientific was used. Radioactive organ samples were measured on Perkin Elmer Wizard^2 gamma counter. Non-radioactive organ samples were prepared, and the ruthenium content was quantified with ICP-MS. The exact procedure including instrument information can be found in the Supplementary Materials.
For the evaluation of organ distribution, CT26 cells (5 × 10^5 in serum-free medium) were injected subcutaneously into the right flank of Balb/c mice. Animals were controlled for distress development every day and tumor size was assessed regularly using caliper measurements. CT26 cells were inoculated 10 days prior to drug application. Tumor volume was calculated using the formula: (length × width^2); the tumors reached a size of about 500 mm^3. Animals were treated once intravenously (i.v.) via tail-vein injection with 3a or 3b at a dose of 30 mg/kg (dissolved in 0.9% NaCl, 0.6 mg/100 µL/20 g mouse) and a specific activity of 0.64–1.36 MBq/mg for compound 3b. The mice were anesthetized and sacrificed by cervical fracture 4, 24, 48 and 72 h p.i., with n ≥ 2 (3a) and n ≥ 3 (3b) for each time point. Samples of tumor, liver, kidney, muscle, heart, lung, spleen, pancreas, stomach, colon, small intestine, brain, bone, and blood were collected from each mouse. After clotting at RT, serum was isolated from the collected blood samples by centrifugation at 3000 rpm for 10 min twice and stored together with the collected tissue samples at −20 °C. Finally, the ruthenium content was quantified by ICP-MS in the case of the non-radioactive BOLD-100 (3a) and via gamma counting for [^103Ru]BOLD-100 (3b).
An Agilent 7800 ICP-MS (Agilent Technologies, Tokyo, Japan) was being employed, which was equipped with an Agilent SPS 4 autosampler (Agilent Technologies, Tokyo, Japan) and a MicroMist nebulizer at a sample uptake rate of approx. 0.2 mL/min. The Agilent MassHunter software package (Workstation Software, Version C.01.04, 2018) was used for data evaluation. The instrumental parameters […]
Reference source not found..
Ta ble S1: Instrumental parameters for the ICP-MS measurements […]
Spray chamber Scott double-pass
Spraying chamber temp. 2°C
Nebulizer gas 1.06 L min−1
Auxiliary gas 0.90 L min−1
The instrumental limit of quantification (LOQ) was determined at the start of the measurement by […]
LOQ = blank average + 10*STD
Blank corrections were performed for all the samples. Robustness was ensured by tuning the ICP-MS on a daily basis, by using an internal standard (115In) and measuring calibration standards for each […]
Ultrapure water (18.2 MΩ cm, ELGA Water purification system, Purelab Ultra MK 2, UK or 18.2 MΩ cm, Milli-Q Advantage, Darmstadt, Germany), HNO3 (≥69%, Rotipuran Supra, Carl Roth, Karlsruhe, Germany) and H2O2 (30%, Suprapur, Merck, Darmstadt, Germany) were used for all dilutions for ICP-MS measurements. The Ru standard solution was purchased from Labkings (Hilversum, The Netherlands).
For the digestion, approx. 25–50 mg of each organ sample were weighed into PFA-tubes, with 2 mL HNO3 and 100 µL H2O2 being added. The solutions were then placed on a hot plate and heated up for 6 hours using a temperature program with a maximum temperature of 200 °C. After cooling down, the liquids were transferred directly to 15 mL tubes with the remaining solution being removed from the PFA tubes by washing twice with 4 mL ultrapure water, resulting in a final volume of about 10 mL. By writing down the total weight of the resulting liquid, the dilution factor could be calculated.

[1] = Tumor, 24 h p.i., 30 mg/kg i.v.

[Cl][Ru]([Cl])([Cl])[Cl].[Na+].c1ccc2[nH]ncc2c1.c1ccc2[nH]ncc2c1 [3b, [^103Ru]sodium trans-[tetrachloridobis(indazole)ruthenate(III)]]
tumor/organ ratio Blood cells (Blood cells, 4 h): 0.4 ± 0.1 | %ID/g tissue Blood cells (Blood cells, 4 h p.i., 30 mg/kg i.v.): 11.98 ± 2.26 %ID/g tissue | %ID/g tissue Blood cells (Blood cells, 24 h p.i., 30 mg/kg i.v.): 3.41 ± 0.97 %ID/g tissue | %ID/g tissue Blood cells (Blood cells, 48 h p.i., 30 mg/kg i.v.): 2.94 ± 1.32 %ID/g tissue | %ID/g tissue Blood cells (Blood cells, 72 h p.i., 30 mg/kg i.v.): 2.19 ± 0.96 %ID/g tissue | tumor/organ ratio Bones (4 h): 3.4 ± 0.5 | %ID/g tissue Bones (4 h p.i., 30 mg/kg i.v.): 1.34 ± 0.30 %ID/g tissue | tumor/organ ratio Bones (24 h): 5.4 ± 0.6 | %ID/g tissue Bones (24 h p.i., 30 mg/kg i.v.): 1.19 ± 0.29 %ID/g tissue | tumor/organ ratio Bones (48 h): 7.0 ± 0.8 | %ID/g tissue Bones (48 h p.i., 30 mg/kg i.v.): 0.90 ± 0.24 %ID/g tissue | tumor/organ ratio Bones (72 h): 4.9 ± 1.7 | %ID/g tissue Bones (72 h p.i., 30 mg/kg i.v.): 1.00 ± 0.15 %ID/g tissue | tumor/organ ratio Brain (4 h): 10.7 ± 3.3 | %ID/g tissue Brain (4 h p.i., 30 mg/kg i.v.): 0.46 ± 0.20 %ID/g tissue | tumor/organ ratio Brain (24 h): 51.9 ± 4.4 | %ID/g tissue Brain (24 h p.i., 30 mg/kg i.v.): 0.12 ± 0.02 %ID/g tissue | tumor/organ ratio Brain (48 h): 53.3 ± 14.3 | %ID/g tissue Brain (48 h p.i., 30 mg/kg i.v.): 0.13 ± 0.05 %ID/g tissue | tumor/organ ratio Brain (72 h): 54.3 ± 15.1 | %ID/g tissue Brain (72 h p.i., 30 mg/kg i.v.): 0.09 ± 0.05 %ID/g tissue | %ID/g tissue Colon (4 h p.i., 30 mg/kg i.v.): 3.89 ± 0.96 %ID/g tissue | %ID/g tissue Colon (24 h p.i., 30 mg/kg i.v.): 1.88 ± 0.37 %ID/g tissue | %ID/g tissue Colon (48 h p.i., 30 mg/kg i.v.): 2.34 ± 0.72 %ID/g tissue | %ID/g tissue Colon (72 h p.i., 30 mg/kg i.v.): 2.19 ± 0.77 %ID/g tissue | tumor/organ ratio Fat (4 h): 5.1 ± 2.1 | tumor/organ ratio Fat (24 h): 10.3 ± 2.1 | tumor/organ ratio Fat (48 h): 13.3 ± 5.0 | tumor/organ ratio Fat (72 h): 8.6 ± 3.5 | tumor/organ ratio Heart (4 h): 0.8 ± 0.2 | %ID/g tissue Heart (4 h p.i., 30 mg/kg i.v.): 5.93 ± 1.10 %ID/g tissue | tumor/organ ratio Heart (24 h): 2.0 ± 0.2 | %ID/g tissue Heart (24 h p.i., 30 mg/kg i.v.): 3.24 ± 0.73 %ID/g tissue | tumor/organ ratio Heart (48 h): 2.1 ± 0.2 | %ID/g tissue Heart (48 h p.i., 30 mg/kg i.v.): 2.98 ± 0.41 %ID/g tissue | tumor/organ ratio Heart (72 h): 1.5 ± 0.4 | %ID/g tissue Heart (72 h p.i., 30 mg/kg i.v.): 3.12 ± 0.84 %ID/g tissue | tumor/organ ratio Kidneys (4 h): 0.4 ± 0.1 | %ID/g tissue Kidneys (4 h p.i., 30 mg/kg i.v.): 12.98 ± 2.87 %ID/g tissue | tumor/organ ratio Kidneys (24 h): 0.5 ± 0.1 | %ID/g tissue Kidneys (24 h p.i., 30 mg/kg i.v.): 12.55 ± 0.74 %ID/g tissue | tumor/organ ratio Kidneys (48 h): 0.5 ± 0.1 | %ID/g tissue Kidneys (48 h p.i., 30 mg/kg i.v.): 11.79 ± 2.66 %ID/g tissue | %ID/g tissue Kidneys (72 h p.i., 30 mg/kg i.v.): 13.14 ± 5.56 %ID/g tissue | tumor/organ ratio Liver (4 h): 0.2 ± 0.2 | %ID/g tissue Liver (4 h p.i., 30 mg/kg i.v.): 24.41 ± 3.17 %ID/g tissue | tumor/organ ratio Liver (24 h): 0.5 ± 0.1 | %ID/g tissue Liver (24 h p.i., 30 mg/kg i.v.): 13.83 ± 3.38 %ID/g tissue | tumor/organ ratio Liver (48 h): 0.4 ± 0.1 | %ID/g tissue Liver (48 h p.i., 30 mg/kg i.v.): 14.54 ± 2.69 %ID/g tissue | tumor/organ ratio Liver (72 h): 0.4 ± 0.1 | %ID/g tissue Liver (72 h p.i., 30 mg/kg i.v.): 12.26 ± 2.85 %ID/g tissue | %ID/g tissue Lung (4 h p.i., 30 mg/kg i.v.): 9.77 ± 1.75 %ID/g tissue | %ID/g tissue Lung (24 h p.i., 30 mg/kg i.v.): 5.89 ± 3.04 %ID/g tissue | %ID/g tissue Lung (48 h p.i., 30 mg/kg i.v.): 5.08 ± 1.93 %ID/g tissue | %ID/g tissue Lung (72 h p.i., 30 mg/kg i.v.): 4.47 ± 2.10 %ID/g tissue | %ID/g tissue Muscle (4 h p.i., 30 mg/kg i.v.): 1.05 ± 0.14 %ID/g tissue | %ID/g tissue Muscle (24 h p.i., 30 mg/kg i.v.): 0.57 ± 0.19 %ID/g tissue | %ID/g tissue Muscle (48 h p.i., 30 mg/kg i.v.): 0.60 ± 0.16 %ID/g tissue | %ID/g tissue Muscle (72 h p.i., 30 mg/kg i.v.): 0.65 ± 0.17 %ID/g tissue | %ID/g tissue Pancreas (4 h p.i., 30 mg/kg i.v.): 3.75 ± 1.07 %ID/g tissue | %ID/g tissue Pancreas (24 h p.i., 30 mg/kg i.v.): 1.74 ± 0.39 %ID/g tissue | %ID/g tissue Pancreas (48 h p.i., 30 mg/kg i.v.): 2.50 ± 1.33 %ID/g tissue | %ID/g tissue Pancreas (72 h p.i., 30 mg/kg i.v.): 2.01 ± 0.75 %ID/g tissue | tumor/organ ratio Serum (4 h): 0.2 ± 0.0 | %ID/g tissue Serum (4 h p.i., 30 mg/kg i.v.): 28.02 ± 4.87 %ID/g tissue | tumor/organ ratio Serum (24 h): 0.8 ± 0.1 | %ID/g tissue Serum (24 h p.i., 30 mg/kg i.v.): 8.57 ± 3.37 %ID/g tissue | tumor/organ ratio Serum (48 h): 1.3 ± 0.4 | %ID/g tissue Serum (48 h p.i., 30 mg/kg i.v.): 5.31 ± 2.78 %ID/g tissue | tumor/organ ratio Serum (72 h): 1.4 ± 0.3 | %ID/g tissue Serum (72 h p.i., 30 mg/kg i.v.): 3.63 ± 1.78 %ID/g tissue | %ID/g tissue Small intestine (4 h p.i., 30 mg/kg i.v.): 5.49 ± 1.12 %ID/g tissue | %ID/g tissue Small intestine (24 h p.i., 30 mg/kg i.v.): 2.49 ± 0.76 %ID/g tissue | %ID/g tissue Small intestine (48 h p.i., 30 mg/kg i.v.): 2.54 ± 0.95 %ID/g tissue | %ID/g tissue Small intestine (72 h p.i., 30 mg/kg i.v.): 1.92 ± 0.47 %ID/g tissue | %ID/g tissue Spleen (4 h p.i., 30 mg/kg i.v.): 4.63 ± 0.61 %ID/g tissue | %ID/g tissue Spleen (24 h p.i., 30 mg/kg i.v.): 3.92 ± 0.66 %ID/g tissue | %ID/g tissue Spleen (48 h p.i., 30 mg/kg i.v.): 6.01 ± 2.98 %ID/g tissue | %ID/g tissue Spleen (72 h p.i., 30 mg/kg i.v.): 5.08 ± 1.56 %ID/g tissue | %ID/g tissue Stomach (4 h p.i., 30 mg/kg i.v.): 2.88 ± 0.82 %ID/g tissue | %ID/g tissue Stomach (24 h p.i., 30 mg/kg i.v.): 1.34 ± 0.22 %ID/g tissue | %ID/g tissue Stomach (48 h p.i., 30 mg/kg i.v.): 1.60 ± 0.36 %ID/g tissue | %ID/g tissue Stomach (72 h p.i., 30 mg/kg i.v.): 1.69 ± 0.64 %ID/g tissue | %ID/g tissue Tumor (Tumor, 4 h p.i., 30 mg/kg i.v.): 4.49 ± 1.03 %ID/g tissue | %ID/g tissue Tumor [1]: 6.39 ± 1.44 %ID/g tissue | tumor uptake (highest level) [1]: 6.4 %ID/g | %ID/g tissue Tumor (Tumor, 48 h p.i., 30 mg/kg i.v.): 6.19 ± 1.26 %ID/g tissue | %ID/g tissue Tumor (Tumor, 72 h p.i., 30 mg/kg i.v.): 4.77 ± 1.68 %ID/g tissue
